Results as given in US6914045B2, “Glycopeptide antibiotics” (Wyeth Holdings Corporation, priority 2001, dated 2005).
Converted amounts (≈) assume the structure as drawn.

What was measured:
Test in all cases: in vitro antibacterial evaluation, MIC by broth dilution
Assay type in all cases: cell-based
Streptococcus sp. = details: broth dilution, 18 hours at 35° C.
Summary of the method: (§1)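 MIC, the lowest antibiotic concentration preventing growth, was read across 64-0.06 μg/mL with 5×10^5 CFU/mL inoculum. Method followed NCCLS M7-A2 broth dilution using Mueller-Hinton II; Gram-positive strains covered recent methicillin-, penicillin- and/or vancomycin-resistant clinical isolates.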

Escherichia coli = details: 18 hours at 35° C.
Summary of the method: as §1

Staphylococcus sp. = details: broth dilution, 18 hours at 35° C.
Summary of the method: as §1

Enterococcus sp. = details: broth dilution, 18 hours at 35° C.
Summary of the method: as §1

MIC Streptococcus agalactiae (GC 4564) (Streptococcus sp.; Streptococcus agalactiae (GC 4564)): 1 µg/mL (≈ 0.705 µM)
MIC Streptococcus pneumoniae (ATCC 6301) (Streptococcus sp.; Streptococcus pneumoniae (ATCC 6301)): 0.25 µg/mL (≈ 0.176 µM)
MIC Streptococcus pneumoniae (GC 1894) (Streptococcus sp.; Streptococcus pneumoniae (GC 1894)): 0.12 µg/mL (≈ 0.0847 µM)
MIC Streptococcus pneumoniae (GC 4565) (Streptococcus sp.; Streptococcus pneumoniae (GC 4565)): 0.25 µg/mL (≈ 0.176 µM)
MIC Streptococcus pyogenes (GC 4563) (Streptococcus sp.; Streptococcus pyogenes (GC 4563)): 0.5 µg/mL (≈ 0.353 µM)
MIC Streptococcus pneumoniae (ATCC 6301) (Streptococcus sp.; strain ATCC 6301): 0.25 µg/mL (≈ 0.176 µM)
MIC Streptococcus pneumoniae (GC 1894) (Streptococcus sp.; strain GC 1894): 0.12 µg/mL (≈ 0.0847 µM)
MIC Streptococcus pyogenes (GC 4563) (Streptococcus sp.; strain GC 4563): 0.5 µg/mL (≈ 0.353 µM)
MIC Streptococcus agalactiae (GC 4564) (Streptococcus sp.; strain GC 4564): 1 µg/mL (≈ 0.705 µM)
MIC Streptococcus pneumoniae (GC 4565) (Streptococcus sp.; strain GC 4565): 0.25 µg/mL (≈ 0.176 µM)
MIC Escherichia coli (ATCC 25922) (Escherichia coli; strain ATCC 25922): >64 µg/mL
MIC Escherichia coli (GC 4559) (Escherichia coli; strain GC 4559): >64 µg/mL
MIC Escherichia coli (GC 4560) (Escherichia coli; strain GC 4560): 32 µg/mL (≈ 22.6 µM)
MIC Staphylococcus aureus (ATCC 29213) (Staphylococcus sp.): 32 µg/mL (≈ 22.6 µM)
MIC Staphylococcus aureus (GC 1131) (Staphylococcus sp.): 32 µg/mL (≈ 22.6 µM)
MIC Staphylococcus aureus (GC 3051) (Staphylococcus sp.): 32 µg/mL (≈ 22.6 µM)
MIC Staphylococcus aureus (GC 3053) (Staphylococcus sp.): 32 µg/mL (≈ 22.6 µM)
MIC Staphylococcus aureus (GC 4541) (Staphylococcus sp.): 8 µg/mL (≈ 5.64 µM)
MIC Staphylococcus aureus (GC 4542) (Staphylococcus sp.): 32 µg/mL (≈ 22.6 µM)
MIC Staphylococcus aureus (GC 4544) (Staphylococcus sp.): 32 µg/mL (≈ 22.6 µM)
MIC Staphylococcus aureus (GC 4545) (Staphylococcus sp.): 32 µg/mL (≈ 22.6 µM)
MIC Staphylococcus aureus (GC 1131) (Staphylococcus sp.; inoculum 5×10^5 CFU/mL, strain GC 1131): 32 µg/mL (≈ 22.6 µM)
MIC Staphylococcus aureus (ATCC 29213) (Staphylococcus sp.; strain ATCC 29213): 32 µg/mL (≈ 22.6 µM)
MIC Staphylococcus aureus (GC 3051) (Staphylococcus sp.; strain GC 3051): 32 µg/mL (≈ 22.6 µM)
MIC Staphylococcus aureus (GC 3053) (Staphylococcus sp.; strain GC 3053): 32 µg/mL (≈ 22.6 µM)
MIC Staphylococcus aureus (GC 4541) (Staphylococcus sp.; strain GC 4541): 8 µg/mL (≈ 5.64 µM)
MIC Staphylococcus aureus (GC 4542) (Staphylococcus sp.; strain GC 4542): 32 µg/mL (≈ 22.6 µM)
MIC Staphylococcus aureus-SMITH (GC 4543) (Staphylococcus sp.; strain GC 4543): 32 µg/mL (≈ 22.6 µM)
MIC Staphylococcus aureus (GC 4544) (Staphylococcus sp.; strain GC 4544): 32 µg/mL (≈ 22.6 µM)
MIC Staphylococcus aureus (GC 4545) (Staphylococcus sp.; strain GC 4545): 32 µg/mL (≈ 22.6 µM)
MIC Coagulase Negative Staphylococcus (GC 4547) (Staphylococcus sp.; strain GC 4547): 32 µg/mL (≈ 22.6 µM)
MIC Coagulase Negative Staphylococcus (GC 4548) (Staphylococcus sp.; strain GC 4548): 32 µg/mL (≈ 22.6 µM)
MIC Coagulase Negative Staphylococcus (GC 4549) (Staphylococcus sp.; strain GC 4549): 32 µg/mL (≈ 22.6 µM)
MIC Coagulase Negative Staphylococcus (GC 4551) (Staphylococcus sp.; strain GC 4551): 32 µg/mL (≈ 22.6 µM)
MIC Coagulase Negative Staphylococcus (GC 6257) (Staphylococcus sp.; strain GC 6257): 32 µg/mL (≈ 22.6 µM)
MIC Staphylococcus aureus-SMITH (GC 4543) (Staphylococcus sp.; strain SMITH GC 4543): 32 µg/mL (≈ 22.6 µM)
MIC Enterococcus avium (GC 4558) (Enterococcus sp.; Enterococcus avium (GC 4558)): 32 µg/mL (≈ 22.6 µM)
MIC Enterococcus faecalis (ATCC 29212) (Enterococcus sp.; Enterococcus faecalis (ATCC 29212)): 32 µg/mL (≈ 22.6 µM)
MIC Enterococcus faecalis (GC 2242) (Enterococcus sp.; Enterococcus faecalis (GC 2242)): 32 µg/mL (≈ 22.6 µM)
MIC Enterococcus faecalis (GC 2691) (Enterococcus sp.; Enterococcus faecalis (GC 2691)): 32 µg/mL (≈ 22.6 µM)
MIC Enterococcus faecalis (GC 3059) (Enterococcus sp.; Enterococcus faecalis (GC 3059)): 32 µg/mL (≈ 22.6 µM)
MIC Enterococcus faecalis (GC 4552) (Enterococcus sp.; Enterococcus faecalis (GC 4552)): 32 µg/mL (≈ 22.6 µM)
MIC Enterococcus faecalis (GC 4553) (Enterococcus sp.; Enterococcus faecalis (GC 4553)): 32 µg/mL (≈ 22.6 µM)
MIC Enterococcus faecalis (GC 4554) (Enterococcus sp.; Enterococcus faecalis (GC 4554)): 32 µg/mL (≈ 22.6 µM)
MIC Enterococcus faecalis (GC 6189) (Enterococcus sp.; Enterococcus faecalis (GC 6189)): 32 µg/mL (≈ 22.6 µM)
MIC Enterococcus faecium (GC 2243) (Enterococcus sp.; Enterococcus faecium (GC 2243)): 32 µg/mL (≈ 22.6 µM)
MIC Enterococcus faecium (GC 4556) (Enterococcus sp.; Enterococcus faecium (GC 4556)): 32 µg/mL (≈ 22.6 µM)
MIC Enterococcus faecium (GC 4557) (Enterococcus sp.; Enterococcus faecium (GC 4557)): 16 µg/mL (≈ 11.3 µM)
MIC Enterococcus faecalis (ATCC 29212) (Enterococcus sp.; strain ATCC 29212): 32 µg/mL (≈ 22.6 µM)
MIC Enterococcus faecalis (GC 2242) (Enterococcus sp.; strain GC 2242): 32 µg/mL (≈ 22.6 µM)
MIC Enterococcus faecium (GC 2243) (Enterococcus sp.; strain GC 2243): 32 µg/mL (≈ 22.6 µM)
MIC Enterococcus faecalis (GC 2691) (Enterococcus sp.; strain GC 2691): 32 µg/mL (≈ 22.6 µM)
MIC Enterococcus faecalis (GC 3059) (Enterococcus sp.; strain GC 3059): 32 µg/mL (≈ 22.6 µM)
MIC Enterococcus faecalis (GC 4552) (Enterococcus sp.; strain GC 4552): 32 µg/mL (≈ 22.6 µM)
MIC Enterococcus faecalis (GC 4553) (Enterococcus sp.; strain GC 4553): 32 µg/mL (≈ 22.6 µM)
MIC Enterococcus faecalis (GC 4554) (Enterococcus sp.; strain GC 4554): 32 µg/mL (≈ 22.6 µM)
MIC Enterococcus faecium (GC 4556) (Enterococcus sp.; strain GC 4556): 32 µg/mL (≈ 22.6 µM)
MIC Enterococcus faecium (GC 4557) (Enterococcus sp.; strain GC 4557): 16 µg/mL (≈ 11.3 µM)
MIC Enterococcus avium (GC 4558) (Enterococcus sp.; strain GC 4558): 32 µg/mL (≈ 22.6 µM)
MIC Enterococcus faecalis (GC 6189) (Enterococcus sp.; strain GC 6189): 32 µg/mL (≈ 22.6 µM)
Compound: CC(C)=CCCC(C)C1OCC2OC(OC3C(CO)OC(Oc4ccc(CC5NC(=O)C(C(C)c6ccccc6)NC(=O)CNC(=O)C(CO)NC(=O)C(C(O)C6CNC(=N)N6C6OC(CO)C(O)C(O)C6O)NC(=O)C(C(O)C6CNC(=N)N6)NC5=O)cc4)C(O)C3O)C(O)C(O)C2O1 (stereo not shown) [Example 125]
MIC Staphylococcus haemolyticus (GC 4546) (Staphylococcus sp.; strain GC 4546): 32 µg/mL (≈ 22.6 µM)
